Test results: ChEMBL document CHEMBL3627608, “Crystal structures of human RIP2 kinase catalytic domain complexed with ATP-competitive inhibitors: Foundations for understanding inhibitor selectivity” (Bioorg Med Chem, 2015)

Legend:
[1] = target: Cyclin-dependent kinase 14 (Homo sapiens) (UniProt O94921); experiment: Inhibition of PFTK1 (unknown origin) at 10 uM after 120 mins P33 radiolabeled kinase activity assay
[2] = target: T1, Calcium/calmodulin-dependent protein kinase type IV (Homo sapiens) (UniProt Q16566); experiment: Inhibition of CAMK4 (unknown origin) at 10 uM after 120 mins P33 radiolabeled kinase activity assay
T1 sequence (whole entry): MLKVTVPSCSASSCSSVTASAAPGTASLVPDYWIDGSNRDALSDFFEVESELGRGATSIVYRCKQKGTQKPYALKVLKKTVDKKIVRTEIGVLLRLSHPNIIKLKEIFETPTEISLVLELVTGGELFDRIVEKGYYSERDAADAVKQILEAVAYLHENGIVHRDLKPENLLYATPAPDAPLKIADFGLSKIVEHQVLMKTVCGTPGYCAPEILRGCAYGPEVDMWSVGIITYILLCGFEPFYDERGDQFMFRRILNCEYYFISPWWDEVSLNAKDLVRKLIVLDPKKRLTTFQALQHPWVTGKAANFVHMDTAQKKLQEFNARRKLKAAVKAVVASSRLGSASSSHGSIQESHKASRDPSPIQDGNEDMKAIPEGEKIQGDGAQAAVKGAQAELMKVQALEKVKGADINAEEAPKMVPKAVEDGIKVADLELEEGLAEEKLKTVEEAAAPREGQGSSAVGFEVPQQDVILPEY

[3] = target: T2, Serine/threonine-protein kinase LATS2 (Homo sapiens) (UniProt Q9NRM7); experiment: Inhibition of LATS2 (unknown origin) at 10 uM after 120 mins P33 radiolabeled kinase activity assay
T2 sequence (whole entry): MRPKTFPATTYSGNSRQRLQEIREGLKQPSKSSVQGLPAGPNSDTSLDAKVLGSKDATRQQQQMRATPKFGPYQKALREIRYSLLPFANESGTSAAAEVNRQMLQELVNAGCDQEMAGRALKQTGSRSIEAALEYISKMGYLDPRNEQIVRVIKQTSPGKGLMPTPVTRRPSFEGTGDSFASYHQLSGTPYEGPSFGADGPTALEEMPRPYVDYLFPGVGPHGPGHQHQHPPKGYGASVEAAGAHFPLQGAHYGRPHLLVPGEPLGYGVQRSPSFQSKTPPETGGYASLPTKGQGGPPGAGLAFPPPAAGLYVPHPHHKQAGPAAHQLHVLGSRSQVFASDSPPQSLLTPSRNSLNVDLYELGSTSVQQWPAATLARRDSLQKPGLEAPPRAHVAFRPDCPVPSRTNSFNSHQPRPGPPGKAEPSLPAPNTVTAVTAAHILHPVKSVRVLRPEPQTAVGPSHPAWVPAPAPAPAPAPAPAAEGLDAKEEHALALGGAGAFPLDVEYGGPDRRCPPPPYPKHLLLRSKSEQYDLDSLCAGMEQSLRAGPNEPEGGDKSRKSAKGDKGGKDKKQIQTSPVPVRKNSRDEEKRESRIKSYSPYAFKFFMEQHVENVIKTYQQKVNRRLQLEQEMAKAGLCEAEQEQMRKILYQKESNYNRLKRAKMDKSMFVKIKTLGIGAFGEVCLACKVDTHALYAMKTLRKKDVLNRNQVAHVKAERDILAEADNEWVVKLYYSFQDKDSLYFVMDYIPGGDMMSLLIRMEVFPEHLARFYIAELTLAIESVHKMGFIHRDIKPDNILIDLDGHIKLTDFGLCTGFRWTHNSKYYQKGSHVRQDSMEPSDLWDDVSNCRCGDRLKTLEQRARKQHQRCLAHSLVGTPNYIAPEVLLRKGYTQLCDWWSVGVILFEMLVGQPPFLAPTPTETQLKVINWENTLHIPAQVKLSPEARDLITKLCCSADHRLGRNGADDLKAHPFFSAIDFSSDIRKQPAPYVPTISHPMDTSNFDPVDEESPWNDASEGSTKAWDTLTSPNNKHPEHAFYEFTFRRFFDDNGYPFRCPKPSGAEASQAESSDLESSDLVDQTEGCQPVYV

[4] = target: T3, Mitogen-activated protein kinase kinase kinase 7 (Homo sapiens) (UniProt O43318); experiment: Inhibition of TAK1 (unknown origin) at 10 uM after 120 mins P33 radiolabeled kinase activity assay
T3 sequence (whole entry): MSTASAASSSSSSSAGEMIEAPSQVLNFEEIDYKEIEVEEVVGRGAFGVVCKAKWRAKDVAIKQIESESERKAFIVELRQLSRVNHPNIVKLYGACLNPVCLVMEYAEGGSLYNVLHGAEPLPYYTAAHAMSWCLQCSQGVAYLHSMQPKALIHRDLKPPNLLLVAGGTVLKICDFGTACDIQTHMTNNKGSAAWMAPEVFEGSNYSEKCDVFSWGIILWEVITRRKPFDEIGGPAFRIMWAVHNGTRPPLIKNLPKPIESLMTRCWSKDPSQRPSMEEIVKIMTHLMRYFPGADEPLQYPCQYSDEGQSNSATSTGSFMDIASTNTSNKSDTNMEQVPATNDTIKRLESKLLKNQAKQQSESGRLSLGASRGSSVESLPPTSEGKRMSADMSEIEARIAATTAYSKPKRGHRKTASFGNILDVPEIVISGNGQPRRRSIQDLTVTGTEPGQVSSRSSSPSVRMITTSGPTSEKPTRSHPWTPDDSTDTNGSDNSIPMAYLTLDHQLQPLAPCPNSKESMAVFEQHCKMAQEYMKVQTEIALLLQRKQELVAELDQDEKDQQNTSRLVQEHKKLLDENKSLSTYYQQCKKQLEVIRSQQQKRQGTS

[5] = target: CDK1/Cyclin A (Homo sapiens) (UniProt P06493+P20248); experiment: Inhibition of CDK1/cyclin A (unknown origin) at 10 uM after 120 mins P33 radiolabeled kinase activity assay; assay type: protein-complex assay
[6] = target: Proto-oncogene tyrosine-protein kinase Src (Homo sapiens) (UniProt P12931); experiment: Inhibition of c-Src (unknown origin) at 10 uM after 120 mins P33 radiolabeled kinase activity assay
[7] = target: Serine/threonine-protein kinase Chk2 (Homo sapiens) (UniProt O96017); experiment: Inhibition of CHK2 (unknown origin) at 10 uM after 120 mins P33 radiolabeled kinase activity assay
Serine/threonine-protein kinase Chk2 (Homo sapiens), sequence (O96017 whole entry): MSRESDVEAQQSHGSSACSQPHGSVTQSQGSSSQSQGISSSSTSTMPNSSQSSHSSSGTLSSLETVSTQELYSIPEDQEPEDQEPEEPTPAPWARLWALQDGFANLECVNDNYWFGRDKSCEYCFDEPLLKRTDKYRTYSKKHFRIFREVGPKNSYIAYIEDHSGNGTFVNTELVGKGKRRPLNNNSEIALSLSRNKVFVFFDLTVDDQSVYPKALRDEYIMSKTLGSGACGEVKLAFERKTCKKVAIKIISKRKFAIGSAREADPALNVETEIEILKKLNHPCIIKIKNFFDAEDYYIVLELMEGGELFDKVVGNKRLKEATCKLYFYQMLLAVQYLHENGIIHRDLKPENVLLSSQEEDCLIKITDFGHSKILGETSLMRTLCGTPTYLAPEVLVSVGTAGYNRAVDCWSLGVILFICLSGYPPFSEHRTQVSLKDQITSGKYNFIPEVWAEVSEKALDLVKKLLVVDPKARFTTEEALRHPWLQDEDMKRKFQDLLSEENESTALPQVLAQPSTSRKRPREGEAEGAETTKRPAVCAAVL

CDK1/Cyclin A (Homo sapiens), sequence (P06493 whole entry, looked up): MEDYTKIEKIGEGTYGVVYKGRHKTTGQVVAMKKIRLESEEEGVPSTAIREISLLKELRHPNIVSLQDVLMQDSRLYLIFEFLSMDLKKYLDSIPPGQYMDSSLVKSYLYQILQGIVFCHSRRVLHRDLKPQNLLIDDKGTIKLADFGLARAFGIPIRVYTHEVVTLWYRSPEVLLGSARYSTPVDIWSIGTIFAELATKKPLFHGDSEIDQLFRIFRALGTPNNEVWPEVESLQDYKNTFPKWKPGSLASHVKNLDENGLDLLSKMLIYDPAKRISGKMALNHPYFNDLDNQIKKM
CDK1/Cyclin A (Homo sapiens), sequence (P20248 whole entry, looked up): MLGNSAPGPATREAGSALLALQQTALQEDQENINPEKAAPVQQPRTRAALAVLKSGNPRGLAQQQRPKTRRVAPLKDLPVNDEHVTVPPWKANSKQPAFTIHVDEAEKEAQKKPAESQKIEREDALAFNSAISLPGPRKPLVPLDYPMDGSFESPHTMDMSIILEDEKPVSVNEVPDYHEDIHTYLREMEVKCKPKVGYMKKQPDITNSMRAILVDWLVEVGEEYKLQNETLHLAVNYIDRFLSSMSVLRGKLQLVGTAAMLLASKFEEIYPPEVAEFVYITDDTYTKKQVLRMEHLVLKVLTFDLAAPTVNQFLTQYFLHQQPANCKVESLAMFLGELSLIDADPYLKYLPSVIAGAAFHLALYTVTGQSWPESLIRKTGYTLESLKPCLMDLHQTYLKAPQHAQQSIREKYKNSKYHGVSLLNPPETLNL
Cyclin-dependent kinase 14 (Homo sapiens), sequence (O94921 whole entry): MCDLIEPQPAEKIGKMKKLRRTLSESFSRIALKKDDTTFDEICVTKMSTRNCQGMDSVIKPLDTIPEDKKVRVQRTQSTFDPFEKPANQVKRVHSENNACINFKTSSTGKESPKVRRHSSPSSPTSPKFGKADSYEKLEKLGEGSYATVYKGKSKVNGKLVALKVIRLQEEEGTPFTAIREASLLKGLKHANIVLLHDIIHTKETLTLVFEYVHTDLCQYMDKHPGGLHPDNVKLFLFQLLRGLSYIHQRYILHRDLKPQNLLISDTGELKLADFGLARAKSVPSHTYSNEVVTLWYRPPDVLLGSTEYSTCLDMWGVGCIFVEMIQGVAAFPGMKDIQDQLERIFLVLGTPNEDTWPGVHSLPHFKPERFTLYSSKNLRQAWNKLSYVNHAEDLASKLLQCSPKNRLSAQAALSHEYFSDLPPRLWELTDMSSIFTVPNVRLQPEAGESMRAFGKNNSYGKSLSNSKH
Proto-oncogene tyrosine-protein kinase Src (Homo sapiens), sequence (P12931 2-536 limits assumed): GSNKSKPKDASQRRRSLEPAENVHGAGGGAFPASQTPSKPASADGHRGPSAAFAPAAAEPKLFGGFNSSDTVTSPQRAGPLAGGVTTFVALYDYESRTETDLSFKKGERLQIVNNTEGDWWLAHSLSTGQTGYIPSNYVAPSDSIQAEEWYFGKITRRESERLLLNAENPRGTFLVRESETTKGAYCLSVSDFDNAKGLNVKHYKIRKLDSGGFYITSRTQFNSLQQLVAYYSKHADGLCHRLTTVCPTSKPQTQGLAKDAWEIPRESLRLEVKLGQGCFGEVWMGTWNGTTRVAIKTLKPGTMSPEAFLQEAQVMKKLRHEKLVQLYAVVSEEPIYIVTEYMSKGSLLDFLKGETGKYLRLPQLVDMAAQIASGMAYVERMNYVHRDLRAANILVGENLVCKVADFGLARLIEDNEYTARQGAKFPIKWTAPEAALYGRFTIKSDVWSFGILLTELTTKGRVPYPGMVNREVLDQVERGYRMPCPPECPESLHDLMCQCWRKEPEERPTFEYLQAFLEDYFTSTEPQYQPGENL

| SMILES | inhibition [1] [%] | inhibition [2] [%] | inhibition [3] [%] | inhibition [4] [%] | inhibition [5] [%] | inhibition [6] [%] | inhibition [7] [%] |
| --- | --- | --- | --- | --- | --- | --- | --- |
| CS(=O)(=O)c1cccc(Nc2nccc(-c3sc(N4CCOCC4)nc3-c3cccc(NS(=O)(=O)c4c(F)cccc4F)c3)n2)c1 | 50.9 | 29.4 | 21.9 | 83 | 34.2 | 99.1 | 51.7 |
| COCCNC(=O)c1ccc2c(c1)nc(-c1cnc(-c3ccc(Cl)cc3)[nH]1)n2CCOC | -3.92 | 6.98 | 2.32 | 6.56 | -6.11 | 81.1 | -5.19 |
| CC(C)(C)c1cc(NC(=O)Nc2ccc(Oc3ccncc3)cc2)no1 | 86.7 | 15.2 | 50.2 | 83.8 | 7.46 | 85.8 | 11.1 |
